Measurements: US7635719B2, “Use of adamatyl methoxydiphenyl propenoic acid for the treatment of acne” (Sigma-Tau Industrie Farmaceutiche Riunite S.p.A., priority 2005, dated 2009)

Experiments:
[1] = test system: epidermal utriculi (comedones) of rhino mice; experiment: Comedolytic action of ST1898 (Formulation 2) on epidermal pseudocomedones in rhino mice; assay type: in vivo, rhino (RHJ/LeJ) mice
Protocol: Formulations: ST1898 0.1 and 0.05% in the vehicle.
Vehicle: carbomer 980, propylene glycol, poloxamer, disodium edentate, methyl hydroxybenzoate, phenoxyethanol, sodium hydroxide and purified water).
Adapalene (Differin Gel®) was used as reference compound (0.1%).
(§1) 30 rhino (RHJ/LeJ) mice (Jackson Laboratory), 15 male and 15 female (6-8 weeks of age) were subdivided in 6 mice/group. Two groups were treated with ST1898 (Formulation 2) (0.1% and 0.05% in the vehicle), a group with adapalene (Differin® gel), used as reference compound (0.1%), a group with the vehicle (the same of the formulation of Differin® gel: carbomer 980, propylene glycol, poloxamer, disodium edentate, methyl hydroxybenzoate, phenoxyethanol, sodium hydroxide and purified water).
A group was not treated (control). The drugs (50 μl) were applied with a sterile gloved finger topically on the dorsal skin (massage for 30-45 sec), once daily for 5 consecutive days/week (excluding Saturdays and Sundays) for 3 consecutive […]. Three days after the last application, mice were sacrificed by cervical dislocation. Two skin punch biopsies (6 mm) were taken immediately after death from all sacrificed animals. The biopsies were formalin-fixed (10% buffered formalin solution) and paraffin-embedded.
Quantitative histological image analysis was evaluated as the total number of epidermal utriculi (comedones) per centimeter of stratum corneum length, the comedo profile, and the epidermal thickness. From one biopsy, three 3-μm thick skin sections were obtained at 150 μm intervals and were stained with hematoxylin-eosin. The second biopsy was kept stored for records.
Assisted computer morphometric analysis of the stained skin sections was performed using a Zeiss KS300.3 system (parameters n. 1, 3 and 4). For total length of the stratum corneum measurement a micrometric equipment was used. The following microscopic parameters were measured:
1) on each open epidermal utriculum/comedo the largest diameter or diameter taken at half depth (D) and diameter of the surface orifice (d),
2) length of the three sections, taken as total length of the stratum corneum,
3) total number of epidermal utriculi/comedones in the three sections,
4) in interfollicular areas, surface (S) of the epidermis and length (L) of the corresponding basal layer.
1) number of utriculi/(comedones)/length of stratum corneum (cm);
2) Comedo profile, calculated as r=d/D,
3) epidermal thickness, calculated as S/L in […]m.
A topical application on the dorsal skin (massage for 30-45 sec) was performed of 50 μl applied with a gloved finger. The treatment was done once daily for 5 consecutive days/week (excluding Saturdays and Sundays) for 3 consecutive weeks. […]

[2] = Body weight of rhino mice treated with ST1898 (Formulation 2) or adapalene; assay type: in vivo, rhino (RHJ/LeJ) mice
Protocol: as §1
A topical application on the dorsal skin (massage for 30-45 sec) was performed of 50 μl applied with a gloved finger. The treatment was done once daily for 5 consecutive days/week (excluding Saturdays and Sundays) for 3 consecutive weeks.
During the treatment, the body weight of mice was recorded to control the healthy status of mice. No significative variation in body weight was found (table 2).
Mice were sacrificed 3 days after the last treatment. The vehicle used for ST1898 (Formulation 2) was the same of Differin gel (carbomer 980, propylene glycol, poloxamer, disodium edentate, methyl hydroxybenzoate, phenoxyethanol, sodium hydroxide and purified water).

For `COc1ccc(-c2ccc3cc(C(=O)O)ccc3c2)cc1C12CC3CC(CC(C3)C1)C2` [Adapalene, reference compound], the “Comedones (n/cm)” value ([1]; 0.1% gel (Formulation 2 / Differin gel), topical 50 μl qdx5/wx3w, mean ± SD, untreated 57.35, vehicle 57.27) was 28.31 ± 2.92 n/cm, the “Comedo profile (r = d/D)” value ([1]; 0.1% gel, topical 50 μl qdx5/wx3w, mean ± SD, untreated 0.62, vehicle 0.61) was 1.24 ± 0.11 and the “Epidermal thickness (μm)” value ([1]; 0.1% gel, topical 50 μl qdx5/wx3w, mean ± SD, untreated 20.90, vehicle 20.56) was 57.33 ± 9.99 μm. For the same compound, the “Histological analysis: interfollicular epidermis (in words)” value ([1]; skin of treated rhino mice) was “hyperplasia of interfollicular epidermis”, the “Initial body weight gr ± SE” value ([2]; 0.1% group, before treatment) was 21.3 ± 1.1 gr and the “Body weight loss max (%)” value ([2]; 0.1% topical qdx5/wx3w) was 4%. The “Final body weight gr ± SE” value ([2]; 0.1% topical qdx5/wx3w) was 21.2 ± 1.3 gr.
